Data on 37 compounds can be found in patent US10550089B2, “Inhibitors of protease-activated receptor-2” (Heptares Therapeutics Limited, priority 2016, dated 2020).

Assay [1] addresses T1, PAR2 (Homo sapiens (Human), UniProt P55085). The assay is described as follows: IP-One HTRF assay for PAR2 antagonist activity (IP1 production). The format is cell-based. The protocol:
Protocol for Testing Compounds for PAR2 Antagonist Activity Using an IP-One HTRF Assay
Inositol monophosphate (IP1) production were measured in 1321N1 cells stably expressing human PAR2 using an IP-One HTRF assay kit (Cisbio). […] After 60 min at 37° C. cells were lysed and IP1 concentrations were detected according to the manufacturers protocol (Cisbio). Data were normalized to IP1 concentrations using a IP1 standard curve according to the manufacturers protocol (Cisbio).
A general note: In TR-FRET formats the signal depends on donor and acceptor labels being close together.

Assay [2] addresses T1, PAR2. The experiment in a line: Trypsin activated FLPR Ca2+ mobilization assay for PAR2 antagonist activity. It counts as cell-based. The protocol:
Trypin Activated FLPR Assay:
Protocol for Testing Compounds for PAR2 Antagonist Activity Using a Ca2+ Mobilization Assay
Calcium mobilization was measured using 1321N1 cells stably expressing human PAR2. Cells were seeded in 384-well plates at 4,000 cells per well in 20 μl DMEM with Glutamax supplemented with 10% FBS and incubated for 18-24 h at 37° C., 5% CO2 and 95% humidity. […] The addition was done using a FLIPR^TETRA (384-well head, Molecular Devices) and the response was read simultaneously to detect any agonist activity.

Setting [3] is: 1321N1 cells stably expressing human PAR2, agonist SLIGRL-NH2, read-out: hPAR2 IPpone IC50.
[4] abbreviates: 1321N1 cells stably expressing human PAR2, agonist Trypsin, Vorapaxar present to block PAR1, read-out: hPAR2 FLPR (Trypsin) IC50.
Setting [5] is: hPAR2 IPpone IC50 (μM), 1321N1 cells stably expressing human PAR2, agonist SLIGRL-NH2.
[6] abbreviates: hPAR2 FLPR (Trypsin) IC50 (μM), 1321N1 cells stably expressing human PAR2, agonist Trypsin, Vorapaxar present to block PAR1.

T1 sequence (P55085 26-397): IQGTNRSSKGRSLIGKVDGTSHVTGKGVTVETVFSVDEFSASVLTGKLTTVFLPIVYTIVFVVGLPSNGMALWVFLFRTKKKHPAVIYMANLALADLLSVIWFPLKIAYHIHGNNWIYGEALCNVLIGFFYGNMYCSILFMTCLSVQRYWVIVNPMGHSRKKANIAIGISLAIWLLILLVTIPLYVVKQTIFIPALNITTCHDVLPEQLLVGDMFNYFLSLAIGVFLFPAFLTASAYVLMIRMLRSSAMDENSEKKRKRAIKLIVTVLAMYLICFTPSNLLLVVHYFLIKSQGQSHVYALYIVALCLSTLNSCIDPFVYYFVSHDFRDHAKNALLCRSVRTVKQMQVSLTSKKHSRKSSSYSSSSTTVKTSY

Turning to `CCCc1c(C(O)c2ncc[nH]2)ccc(F)c1F` (single isomer, unassigned) [Example 11, (3,4-Difluoro-2-propylphenyl)(1H-imidazol-2-yl)methanol], the IC50 – broadly, the midpoint of a concentration-inhibition curve – in assay [1] (setting [3]) is more than 41 µM; in assay [2] (setting [4]), more than 77 µM.

Take `CCCc1c(C(O)c2ncc[nH]2)ccc(F)c1F` (single isomer, unassigned) [Example 12, (3,4-Difluoro-2-propylphenyl)(1H-imidazol-2-yl)methanol]: the 50% inhibitory concentration (IC50) in assay [1] (setting [3]) was 4 µM; in assay [2] (setting [4]), 4.9 µM.

`OC(c1ncc[nH]1)c1ccc(F)cc1N1CCCC1` (single isomer, unassigned) [Example 15, (4-Fluoro-2-(pyrrolidin-1-yl)phenyl)(1H-imidazol-2-yl)methanol]: the values for the IC50 in assay [1] (hPAR2 IPpone IC50 (μM)) and in assay [2] (hPAR2 FLPR (Trypsin) IC50 (μM)) were more than 100 µM and more than 41 µM, respectively.

Take `OC(c1ncc[nH]1)c1ccc(F)cc1N1CC=CC1` (single isomer, unassigned) [Example 18, (2-(2,5-dihydro-1H-pyrrol-1-yl)-4-fluorophenyl)(1H-imidazol-2-yl)methanol]: the IC50 was 0.9 µM in assay [1] (setting [3]) and 4.28 µM in assay [2] (setting [4]).

For `OC(c1ncc[nH]1)c1ccc(F)cc1N1CC=CC1` (single isomer, unassigned) [Example 19, (2-(2,5-dihydro-1H-pyrrol-1-yl)-4-fluorophenyl) (1H-imidazol-2-yl)methanol], the half-maximal inhibitory concentration (IC50) was 93 µM in assay [1] (setting [3]) and more than 100 µM in assay [2] (setting [4]).

Take `CCc1coc2c(F)ccc([C@@H](O)c3ncc[nH]3)c12` (single isomer, unassigned) [Example 41]: the values for the IC50 in assay [1] (setting [5]) and in assay [2] (setting [6]) were 26 µM and 2.19 µM, respectively.

As for `OC(c1ncc[nH]1)c1ccc(F)c2occ(C3CC3)c12` (single isomer, unassigned) [Example 44, (3-Cyclopropyl-7-fluorobenzofuran-4-yl)(1H-imidazol-2-yl)methanol], the 50% inhibitory concentration (IC50) in assay [1] (setting [3]) was 6.54 µM; in assay [2] (setting [4]) it was more than 41 µM.

With `OC(c1ncc[nH]1)c1ccc(F)c2occ(C3CC3)c12` (single isomer, unassigned) [Example 45, (3-Cyclopropyl-7-fluorobenzofuran-4-yl)(1H-imidazol-2-yl)methanol], the 50% inhibitory concentration (IC50) in assay [1] (setting [3]) was found to be 0.63 µM; in assay [2] (setting [4]) it was 6.07 µM.

Turning to `Cn1ccc2c(F)ccc(C(O)c3ncc[nH]3)c21` (single isomer, unassigned) [Example 56, (4-Fluoro-1-methyl-1H-indol-7-yl)(1H-imidazol-2-yl)methanol], the IC50 was more than 100 µM in assay [1] (setting [3]) and more than 41.6 µM in assay [2] (setting [4]).

Regarding `CCCc1cc(F)ccc1C(O)c1ncc[nH]1` (stereo not shown) [Example 1, (4-Fluoro-2-propylphenyl)(1H-imidazol-2-yl)methanol], the IC50 in assay [1] (hPAR2 IPpone IC50 (μM)) turned out to be 2.93 µM.

In the case of `CCCc1cc(F)ccc1[C@@H](O)c1ncc[nH]1` [Example 2, (R)-(4-fluoro-2-propylphenyl)(1H-imidazol-2-yl)methanol], the figures for the IC50 in assay [1] (setting [3]) and in assay [2] (setting [4]) were more than 100 µM and more than 41 µM, respectively.

In the case of `OC(c1ncc[nH]1)c1ccccc1C1=CCCC1` (stereo not shown) [Example 4, (2-Cyclopentenylphenyl)(1H-imidazol-2-yl)methanol], the IC50 in assay [1] (setting [3]) worked out at 6.27 µM; in assay [2] (setting [4]), 16.6 µM.

On to `OC(c1ncc[nH]1)c1ccc(F)cc1C1=CCCC1` (stereo not shown) [Example 5, (2-Cyclopentenyl-4-fluorophenyl)(1H-imidazol-2-yl)methanol], for which the IC50 in assay [1] (setting [3]) is 5.18 µM; in assay [2] (setting [4]), 13.7 µM.

`OC(c1ncc[nH]1)c1ccc(F)cc1C1CCCC1` (stereo not shown) [Example 6, (2-Cyclopentyl-4-fluorophenyl)(1H-imidazol-2-yl)methanol]: the values for the IC50 in assay [1] (setting [3]) and in assay [2] (setting [4]) were 5 µM and 9.57 µM, respectively.

In the case of `OC(c1ncc[nH]1)c1ccc(F)cc1C1CCC1` (stereo not shown) [Example 7, (2-Cyclobutyl-4-fluorophenyl)(1H-imidazol-2-yl)methanol], the IC50 in assay [1] (setting [3]) came out at 11.5 µM; in assay [2] (setting [4]) it was 7.85 µM.

On to `C/C=C/c1cc(F)ccc1C(O)c1ncc[nH]1` (stereo not shown) [Example 8, (E)-(4-Fluoro-2-(prop-1-enyl)phenyl)(1H-imidazol-2-yl)methanol], for which the results for the IC50 in assay [1] (setting [3]) and in assay [2] (setting [4]) were 5.64 µM and 5.1 µM, respectively.

In the case of `C/C=C\c1cc(F)ccc1C(O)c1ncc[nH]1` (stereo not shown) [Example 9, (Z)-(4-Fluoro-2-(prop-1-enyl)phenyl)(1H-imidazol-2-yl)methanol], the IC50 in assay [1] (setting [3]) is 9.66 µM; in assay [2] (setting [4]) it was 6.26 µM.

As for `CCCc1c(C(O)c2ncc[nH]2)ccc(F)c1F` (stereo not shown) [Example 10, (3,4-Difluoro-2-propylphenyl)(1H-imidazol-2-yl)methanol], the results for the IC50 in assay [1] (setting [3]) and in assay [2] (setting [4]) were 1.66 µM and 5.9 µM, respectively.

Consider `CCCc1c(Cl)cccc1C(O)c1ncc[nH]1` (stereo not shown) [Example 13, (3-Chloro-2-propylphenyl)(1H-imidazol-2-yl)methanol], for which the figures for the 50% inhibitory concentration (IC50) in assay [1] (setting [5]) and in assay [2] (setting [6]) were 5.45 µM and 12.4 µM, respectively.

Consider `OC(c1ncc[nH]1)c1ccc(F)cc1N1CCCC1` (stereo not shown) [Example 14, (4-Fluoro-2-(pyrrolidin-1-yl)phenyl)(1H-imidazol-2-yl)methanol], for which the IC50 in assay [1] (hPAR2 IPpone IC50 (μM)) came to 1.52 µM; in assay [2] (hPAR2 FLPR (Trypsin) IC50 (μM)), 16.9 µM.

In the case of `OC(c1ncc[nH]1)c1ccc(F)cc1N1CC=CC1` (stereo not shown) [Example 17, (2-(2,5-dihydro-1H-pyrrol-1-yl)-4-fluorophenyl)(1H-imidazol-2-yl)methanol], the figures for the concentration for half-maximal inhibition (IC50) in assay [1] (setting [3]) and in assay [2] (setting [4]) were 1.05 µM and 8.75 µM, respectively.

Regarding `OC(c1ncc[nH]1)c1ccc(F)cc1N1CCC1` (stereo not shown) [Example 20, (2-(Azetidin-1-yl)-4-fluorophenyl)(1H-imidazol-2-yl)methanol], the half-inhibitory concentration (IC50) amounted to 4.5 µM in assay [1] (setting [3]) and 18.6 µM in assay [2] (setting [4]).

For `OC(c1ncc[nH]1)c1cccc(Cl)c1-n1cccn1` (stereo not shown) [Example 21, (3-Chloro-2-(1H-pyrazol-1-yl)phenyl) (1H-imidazol-2-yl)methanol], the half-maximal inhibitory concentration (IC50) was determined as 6.4 µM in assay [1] (setting [3]) and 40.3 µM in assay [2] (setting [4]).

In the case of `OC(c1ncc[nH]1)c1ccc(F)c(F)c1-n1cccn1` (stereo not shown) [Example 22, (3,4-Difluoro-2-(1H-pyrazol-1-yl)phenyl)(1H-imidazol-2-yl)methanol], the values for the half-inhibitory concentration (IC50) in assay [1] (setting [3]) and in assay [2] (setting [4]) were 4.6 µM and 20 µM, respectively.

On to `OC(c1ncc[nH]1)c1ccc(F)cc1-n1cccn1` (stereo not shown) [Example 23, (4-Fluoro-2-(1H-pyrazol-1-yl)phenyl)(1H-imidazol-2-yl)methanol], for which the IC50 worked out at 7.21 µM in assay [1] (setting [3]) and 25.4 µM in assay [2] (setting [4]).

With `CC1(F)CN(c2cc(F)ccc2C(O)c2ncc[nH]2)C1` (stereo not shown) [Example 24, (4-Fluoro-2-(3-fluoro-3-methylazetidin-1-yl)phenyl)(1H-imidazol-2-yl)methanol], the IC50 in assay [1] (setting [3]) was 6.73 µM; in assay [2] (setting [4]), 16.3 µM.

For `CC1CN(c2cc(F)ccc2C(O)c2ncc[nH]2)C1` (stereo not shown) [Example 25, (4-Fluoro-2-(3-methylazetidin-1-yl)phenyl)(1H-imidazol-2-yl)methanol], the values for the half-inhibitory concentration (IC50) in assay [1] (setting [3]) and in assay [2] (setting [4]) were 6.88 µM and 22 µM, respectively.

`OC(c1ncc[nH]1)c1ccc(F)cc1N1CC[C@H](F)C1` (stereo partly drawn) [Example 26, (4-Fluoro-2-((S)-3-fluoropyrrolidin-1-yl)phenyl)(1H-imidazol-2-yl)methanol]: the IC50 in assay [1] (setting [3]) is 3.87 µM.

Turning to `OC(c1ncc[nH]1)c1ccc(F)cc1N1CC[C@@H](F)C1` (stereo partly drawn) [Example 27, (4-Fluoro-2-((R)-3-fluoropyrrolidin-1-yl)phenyl)(1H-imidazol-2-yl)methanol], the IC50 in assay [1] (setting [3]) is 6.96 µM; in assay [2] (setting [4]) it was more than 41.6 µM.

As to `OC(c1ncc[nH]1)c1ccc(F)cc1N1CCC(F)(F)C1` (stereo not shown) [Example 28, (2-(3,3-Difluoropyrrolidin-1-yl)-4-fluorophenyl)(1H-imidazol-2-yl)methanol], the results for the IC50 in assay [1] (setting [3]) and in assay [2] (setting [4]) were 4.91 µM and 30.3 µM, respectively.

Take `C[C@@H]1CCN(c2cc(F)ccc2C(O)c2ncc[nH]2)C1` (stereo partly drawn) [Example 29, (4-Fluoro-2-((R)-3-methylpyrrolidin-1-yl)phenyl)(1H-imidazol-2-yl)methanol]: the 50% inhibitory concentration (IC50) in assay [1] (setting [3]) is 13.1 µM; in assay [2] (setting [4]) it was more than 41.6 µM.

Consider `OC(c1ncc[nH]1)c1ccc(F)cc1N1CC2CC2C1` (stereo not shown) [Example 30, (2-(3-Azabicyclo[3.1.0]hexan-3-yl)-4-fluorophenyl)(1H-imidazol-2-yl)methanol], for which the values for the half-maximal inhibitory concentration (IC50) in assay [1] (setting [5]) and in assay [2] (setting [6]) were 4.67 µM and 11.6 µM, respectively.

Turning to `OC(c1ncc[nH]1)c1ccc(F)c2ccc(C3CC3)n12` (stereo not shown) [Example 39, (3-Cyclopropyl-8-fluoroindolizin-5-yl)(1H-imidazol-2-yl)methanol], the IC50 in assay [1] (setting [5]) turned out to be 13.2 µM.

As for `Cn1ccc2c(F)ccc(C(O)c3ncc[nH]3)c21` (stereo not shown) [Example 54, (4-Fluoro-1-methyl-1H-indol-7-yl)(1H-imidazol-2-yl)methanol], in assay [2] (setting [4]), the half-inhibitory concentration (IC50) was found to be 6.15 µM.

In the case of `OC(c1ncc[nH]1)c1cccc2cc3n(c12)CCC3` (stereo not shown) [Example 58, (2,3-Dihydro-1H-pyrrolo[1,2-a]indol-5-yl)(1H-imidazol-2-yl)methanol], in assay [2] (setting [4]), the IC50 is more than 41.6 µM.

As for `Cn1ncc2c(F)ccc(C(O)c3ncc[nH]3)c21` (stereo not shown) [Example 62, (4-Fluoro-1-methyl-1H-indazol-7-yl)(1H-imidazol-2-yl)methanol], in assay [1] (setting [3]), the IC50 amounted to 3.38 µM.

`CCc1coc2c(F)ccc(C(O)c3ncn[nH]3)c12` (stereo not shown) [Example 63, (3-Ethyl-7-fluorobenzofuran-4-yl)(1H-1,2,4-triazol-5-yl)methanol]: the IC50 in assay [2] (setting [4]) was 15.6 µM.
